What all share (format): in vitro ADME
For one data set, the system named is monkey plasma proteins. Kind of data set: Plasma protein binding by equilibrium dialysis, monkey. The following applies: for Remaining: 6 h. The procedure: The in vitro binding of ZB716 to plasma proteins was determined by equilibrium dialysis technique in mouse, rat, dog, monkey, and human plasma (EDTA-K2 as anticoagulant), over the concentration range of 0.1–10 μM. The free concentration of ZB716 was below the lower limit of quantitation at 0.1, 1, and 10 μM in human, monkey, dog, rat, and mouse plasma.
The equilibrium dialysis method was used to investigate the in vitro binding of ZB716 to human, monkey, dog, rat, and mouse plasma proteins. The dialysis phosphate buffer solution (100 mM, pH 7.4) and plasma samples containing 0.1, 1, and 10 μM of ZB716 were added to separate chambers of dialysis wells of the HTDialysis device. The dialysis plate was placed in an incubator at 37 °C with 5% CO2 at approximately 100 rpm for 6 h. After incubation, the seal was removed, and 50 μL each of post-dialysis samples was pipetted from both the buffer and plasma chambers into fresh 96-well plates. The samples were analyzed via UPLC–MS/MS. The bound fraction, unbound fraction, recovery (%), and remaining (%) were calculated by Equations (2)–(5):%Unbound = (Conc.buffer chamber/Conc.plasma chamber) × 100(2) %Bound = 100% − %Unbound (3) %Recovery = (Conc.buffer chamber + Conc.plasma chamber)/Conc.Total sample × 100 (4) %Remaining = Conc.6h/Conc.0h × 100 (5)

Another data set deals with T1, CYP2C8 (Homo sapiens, UniProt P10632).
T1 sequence (P10632 1-490): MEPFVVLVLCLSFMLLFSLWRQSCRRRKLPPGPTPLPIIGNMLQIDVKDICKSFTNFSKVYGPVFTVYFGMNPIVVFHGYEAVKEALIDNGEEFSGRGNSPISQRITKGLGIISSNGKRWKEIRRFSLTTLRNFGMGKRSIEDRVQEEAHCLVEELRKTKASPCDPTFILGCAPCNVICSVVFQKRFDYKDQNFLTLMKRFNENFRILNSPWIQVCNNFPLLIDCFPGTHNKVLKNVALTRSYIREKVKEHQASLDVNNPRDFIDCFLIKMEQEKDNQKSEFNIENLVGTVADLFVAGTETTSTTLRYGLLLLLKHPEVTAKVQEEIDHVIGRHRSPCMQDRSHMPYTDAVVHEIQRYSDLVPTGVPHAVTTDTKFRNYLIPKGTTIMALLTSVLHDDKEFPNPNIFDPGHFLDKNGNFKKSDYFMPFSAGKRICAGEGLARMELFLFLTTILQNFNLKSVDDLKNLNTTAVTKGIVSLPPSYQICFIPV
Kind of data set: CYP inhibition in human liver microsomes, CYP2C8. Conditions: HLM, marker substrate Amodiaquine. How it is done: . The inhibition of CYP2B6 and 3A4 (when midazolam was used as the substrate) by ZB716 was not observed. The inhibitory potential of ZB716 on human CYP enzyme activities appears relatively low.
The final concentrations of ZB716 in the incubation system were 0, 0.05, 0.15, 0.5, 1.5, 5, and 15 µM (final organic solvent concentration ≤ 1%). […] . […] The concentrations of the isoform-specific metabolites derived from marker substrates were measured by UPLC–MS/MS. The IC50 values were calculated from the percentages of the rate of the metabolite formation relative to non-inhibited controls vs. the concentrations of ZB716 or positive control inhibitors. All incubations were performed in triplicate. The mean of the enzyme activity (% of non-inhibited control) for each concentration was plotted against the log inhibitor concentration, and fitted to an IC50 curve.

Data set [1] in a line: Metabolic stability in monkey hepatocytes. How it is done:
(§1) Hepatocytes of humans (#X008001), dogs (#M00205), rats (#M00005), and mice (#M005052) were purchased from BioIVT, NY, USA. Monkey hepatocytes were procured from RILD, Shanghai, China. The metabolic stability of ZB716 in human, monkey, dog, rat and mouse hepatocytes was investigated by incubating ZB716 with human, monkey, dog, rat, and mouse hepatocytes (0.5 × 10^6 cells/mL), or with incubation medium only.
(§2) parent disappearance vs. incubation time curve.
(§3) Scaled-up Clint = kV/N × Scaling Factor
(§4) metabolite formed during the reaction.

Another data set relates to monkey hepatocytes. Briefly: Metabolic stability in monkey hepatocytes. The following applies: 1 μM. The procedure: as §1, §2, §3, §4

Regarding `C[C@]12CC[C@@H]3c4ccc(B(O)O)cc4C[C@@H](CCCCCCCCC[S+]([O-])CCCC(F)(F)C(F)(F)F)[C@H]3[C@@H]1CC[C@@H]2O` (some centres unmarked) [ZB716, fulvestrant-3-boronic acid], in the data set on monkey plasma proteins (0.1 μM), the Bound was over 96.4%, the Unbound is under 3.63% and the Remaining was determined as 65.3 ± 2.8%. In addition, in the data set with monkey plasma proteins (1 μM), the Bound is over 99.6%, the Unbound is reported as under 0.326% and the Remaining was 70.9 ± 4.8%. In the data set with monkey plasma proteins (10 μM), this compound had a Bound of over 99.97%, an Unbound of under 0.0308% and a Remaining of 93.9 ± 10.0%. In addition, 6.27 µM corresponded to half-maximal inhibition at CYP2C8 (IC50). In addition, the half-life at 1 μM in data set [1] (read-out: Estimated In Vitro t1/2) is 27.6 ± 2 min. In addition, the hepatocyte CLint at 1 μM in data set [1] (read-out: In Vitro Clint) came to 50.3 ± 3.6 µL/min/1e6 cells. The CLint scaled at 1 μM in data set [1] (read-out: Scaled-Up Clint) was 181 ± 13 mL/min/kg. In the data set on monkey hepatocytes, the “Remaining at 120 min” value is reported as 4.41 ± 0.46%.
